Measurements from patent publication US5047419A, “Photodynamic therapy of glioma or mammary carcinoma using seleno- or telluropyrylium salts” (Eastman Kodak Company, priority 1988, dated 1991).
Read-outs that look alike come from different tables or passages of the source.

Assays:
[1] = In vitro photodynamic therapy, U251 cells; type: cell-based, human; settings: human, u251 glioma cells, dark, read-out: % Surviving Fraction, Dark; for viability at 1 µM: U251, 1 × 10^-6 M; for viability at 0.1 µM: U251, 1 × 10^-7 M
Procedure: (§1) Several selenopyrylium dyes and telluropyrylium dyes from Table I that generated singlet oxygen upon irradiation in air-saturated methanol were examined in vitro in mammalian cell cultures for their effectiveness as agents for photodynamic therapy. […] As controls, HSK1 (normal human skin fibroblasts) and CV-1 (normal monkey kidney cells) were used.
(§2) In vitro cell cultures were grown in antibiotic-free growth medium DMEM-F12 supplemented to 10% with fetal bovine serum and adjusted to 4.5 mM with L-glutamine. DMEM-F12 is a 1:1 mixture of Dulbecco's modified Eagle's medium (Gibco) and Ham's nutrient mixture F12 (Gibco). Prior to cell seeding, multi-well plates were blackened with spray paint, coating the external walls of each well to minimize light scattering from well to well. Subconfluent cell cultures were trypsinized and plated at a concentration of 10^5 cells per 2 cm^2 well. Cells were allowed to incubate overnight at 37° C. in a humidified atmosphere before dye and/or light exposure.
(§3) Stock solutions of the chalcogenopyrylium dyes were prepared at 1 mM concentration by sonication in 95% ethanol in the dark. These stock solutions were diluted with growth medium to the desired concentration. Dyes were protected from light throughout the entire experimental procedure until the time for irradiation. Standard treatment time for dye exposure was 1 hour. The dye containing medium was replaced with fresh growth medium prior to irradiation. Eighteen to twenty-four hours later, the remaining metabolically active cells were evaluated by the MTT colorimetric assay and/or cell counting. Assays were performed in triplicate with standard deviations generally of less than 10%. Percent kill was determined from mean optical density of the treated samples and that of the control (untreated) samples for the MTT analysis and from mean cell counts for these two groups for the cell-counting method. (See Table V).
(§4) Near-infrared and visible light from three sources were employed in these assays. Tungsten light (100-200 mW) was used to assess low milliwatt multiple wavelength effects. An argon-pumped dye laser (Model 150 Aurora, Cooper Lasersonics, Inc., Santa Clara, Calif.) with laser dye LDS 751 (Exciton Chemical Co., Inc., Dayton, Ohio) and a peak wavelength of 785±5 nm was coupled by a […] quartz fiberoptic to a microlens assembly that gave a uniform mode of distribution of light intensity. Thirdly, a laser diode (Model 2430-H2, Spectra Diode Laboratories, Inc., San Jose, Calif. with a fixed wavelength of 800±2 nm provided light energy in the near infrared. The diode was coupled by a 400 μm quartz fiberoptic with a clear and polished end. For laser irradiation experiments, the distance of the fiber tip from the well bottom was adjusted so that the laser irradiation exactly covered the 2 cm^2 target area. A distal power meter (Model 2000, Coherent, Inc., Auburn, Calif.) was used to determine the energy output of the laser source.

[2] = test system: U251 (human glioma); assay: In vitro photodynamic therapy, U251 cells; type: cell-based; settings: Homo sapiens, U-251, read-out: % Surviving Fraction, Light; for viability at 1 µM: U251, 1 × 10^-6 M; for viability at 0.1 µM: U251, 1 × 10^-7 M
Procedure: as §1, §2, §3, §4

[3] = In vitro photodynamic treatment, control HSK1 cells; type: cell-based, human; settings: human, hsk1 skin fibroblasts, dark, read-out: % Surviving Fraction, Dark; for viability at 0.1 µM: HSK1, 1 × 10^-7 M
Procedure: as §1, §2, §3, §4

[4] = test system: HSK1 (normal human skin fibroblasts); assay: as above; type: cell-based; settings: Homo sapiens, Skin fibroblast, read-out: % Surviving Fraction, Light; for viability at 0.1 µM: HSK1, 1 × 10^-7 M
Procedure: as §1, §2, §3, §4

[5] = Absorption maxima (λmax) of chalcogenopyrylium dyes; type: physicochemical
Excerpt: (§5) The ability of the dyes of this invention to function as a cancer-treating agent is in part a reflection of the ability of the dye to generate singlet oxygen in air-saturated solution. (As used herein, "air-saturated solution" means a solution of dye exposed to the atmosphere.) In studying a variety of chalcogenopyrylium dyes, only those dyes containing a selenium or tellurium atom show any appreciable generation of singlet oxygen upon irradiation. Fortuitously, selenopyrylium and telluropyrylium dyes have absorption maxima that are shifted to the red relative to their pyrylium and thiopyrylium analogues. That is, not only are these dyes effective in killing cancer cells because of their high quantum efficiency, but also they generally operate at the most preferred wavelengths, namely those of 700 nm or longer. Table III contains examples of chalcogenopyrylium dyes, their quantum efficiencies for singlet oxygen generation, and their absorption maxima. (In this Table, Ph=Phenyl, Me=Methyl, and t-Bu=tertiary butyl.)

[6] = Quantum efficiency of singlet oxygen generation in air-saturated solution; type: physicochemical; settings: air-saturated solution
Excerpt: as §5

[7] = In vitro photodynamic therapy, B-16 cells; type: cell-based, mouse; settings: mouse, b-16 melanoma cells, dark, read-out: % Surviving Fraction, Dark; for viability at 1 µM: B-16, 1 × 10^-6 M
Procedure: as §1, §2, §3, §4

[8] = test system: B-16 melanoma (mouse melanoma); assay: In vitro photodynamic therapy, B-16 cells; type: cell-based; settings: Mus musculus
Procedure: as §1, §2, §3, §4

[9] = In vitro photodynamic treatment, control CV-1 cells; type: cell-based, monkey; settings: monkey, cv-1 kidney cells, dark, read-out: % Surviving Fraction, Dark; for viability at 1 µM: CV1, 1 × 10^-6 M
Procedure: as §1, §2, §3, §4

[10] = test system: CV-1 (normal monkey kidney cells); assay: as above; type: cell-based; settings: Primates
Procedure: as §1, §2, §3, §4

[11] = In vitro photodynamic therapy, FADU cells; type: cell-based, human; settings: human, fadu squamous cell carcinoma, FADU, dark, read-out: % Surviving Fraction, Dark; for viability at 1 µM: 1 × 10^-6 M
Procedure: as §1, §2, §3, §4

[12] = test system: FADU (human squamous cell carcinoma); assay: In vitro photodynamic therapy, FADU cells; type: cell-based; settings: Homo sapiens, read-out: % Surviving Fraction, Light
Procedure: as §1, §2, §3, §4

[13] = Stability in solution; type: physicochemical
[14] = 50 J cm^-2, source A (tungsten)
[15] = B16, read-out: % Surviving Fraction, Light
[16] = CV-1, read-out: % Surviving Fraction, Light
[17] = 15 J cm^-2, source A (tungsten)

## CC(C)(C)C1=CC(=Cc2cc(C(C)(C)C)[te+]c(C(C)(C)C)c2)C=C(C(C)(C)C)[Te]1 [Dye 12]
[1]
  viability at 1 µM: 55%
  viability at 0.1 µM: 83%
[2]; [14]
  viability at 1 µM: 1%
  viability at 0.1 µM: 74%
[3]
  viability at 0.1 µM: 100%
[4]; [14]
  viability at 0.1 µM: 99%
[5]; H2O
  Absorption maximum λmax: 705 nm
[6]
  Quantum efficiency of singlet oxygen generation Φ(1O2): 0.07

## CC(C)(C)C1=CC(=CC=Cc2cc(C(C)(C)C)[te+]c(C(C)(C)C)c2)C=C(C(C)(C)C)[Te]1 [Dye 4]
[7]
  viability at 1 µM: 99%
[8]; [15]
  viability at 1 µM: 30%
[1]
  viability at 1 µM: 100%
[2]; 50 J cm^-2, source B (dye laser 785 nm)
  viability at 1 µM: 75%
[9]
  viability at 1 µM: 99%
[10]; [16]
  viability at 1 µM: 95%
[5]; CH2Cl2
  Absorption maximum λmax: 830 nm
[6]
  Quantum efficiency of singlet oxygen generation Φ(1O2): 0.13

## CC(C)(C)C1=CC(=CC=Cc2cc(C(C)(C)C)[o+]c(C(C)(C)C)c2)C=C(C(C)(C)C)O1.[Cl-] [C.E. 3, 2,6-Di-t-butyl-4-[3-(2,6-di-t-butyl-4H-pyran-4-ylidene)-1-propen-1-yl]pyrylium chloride, reference compound]
[7]
  viability at 1 µM: 99%
[8]; B16, B-16, 1 × 10^-6 M, 27 J cm^-2, source D (tungsten, 500 nm cutoff), read-out: % Surviving Fraction, Light
  viability at 1 µM: 99%
[9]
  viability at 1 µM: 100%
[10]; CV-1, CV1, 1 × 10^-6 M, 27 J cm^-2, source D (tungsten, 500 nm cutoff), read-out: % Surviving Fraction, Light
  viability at 1 µM: 99%
[11]
  viability at 1 µM: 99%
[12]; FADU, 1 × 10^-6 M, 27 J cm^-2, source D (tungsten, 500 nm cutoff)
  viability at 1 µM: 99%
[5]; H2O
  Absorption maximum λmax: 595 nm
[6]
  Quantum efficiency of singlet oxygen generation Φ(1O2): ≤ 0.001

## CC(C)(C)C1=CC(=CC=Cc2cc(C(C)(C)C)[o+]c(C(C)(C)C)c2)C=C(C(C)(C)C)[Se]1 [Dye 9]
[7]
  viability at 1 µM: 99%
[8]; [15]
  viability at 1 µM: 0.2%
[9]
  viability at 1 µM: 100%
[10]; [16]
  viability at 1 µM: 99%
[11]
  viability at 1 µM: 99%
[12]; FaDu
  viability at 1 µM: 0.2%
[5]; H2O
  Absorption maximum λmax: 660 nm
[6]
  Quantum efficiency of singlet oxygen generation Φ(1O2): 0.005

## CC(C)(C)C1=CC(=CC=Cc2cc(C(C)(C)C)[o+]c(C(C)(C)C)c2)C=C(C(C)(C)C)[Te]1 [Dye 5]
[7]; B-16, 1 × 10^-7 M
  viability at 0.1 µM: 99%
[8]; [15]
  viability at 0.1 µM: 0.1%
[1]
  viability at 0.1 µM: 90%
[2]; [17]
  viability at 0.1 µM: 58%
[9]; CV1, 1 × 10^-7 M
  viability at 0.1 µM: 100%
[10]; [16]
  viability at 0.1 µM: 99%
[11]; 1 × 10^-7 M
  viability at 0.1 µM: 99%
[12]; FaDu
  viability at 0.1 µM: 0.05%
[3]
  viability at 0.1 µM: 99%
[4]; [17]
  viability at 0.1 µM: 99%
[5]; H2O
  Absorption maximum λmax: 700 nm
[6]
  Quantum efficiency of singlet oxygen generation Φ(1O2): 0.06

## CC(C)(C)C1=CC(=CC=Cc2cc(C(C)(C)C)[se+]c(C(C)(C)C)c2)C=C(C(C)(C)C)[Te]1 [Dye 1]
[7]; B-16, 5 × 10^-8 M
  viability at 0.05 µM: 99%
[8]; [15]
  viability at 0.05 µM: 0.03%
[1]; U251, 5 × 10^-8 M
  viability at 0.05 µM: 85%
[2]; U251, 5 × 10^-8 M, 15 J cm^-2, source C (diode laser 800 nm)
  viability at 0.05 µM: 65%
[9]; CV1, 5 × 10^-8 M
  viability at 0.05 µM: 100%
[10]; [16]
  viability at 0.05 µM: 99%
[11]; 5 × 10^-8 M
  viability at 0.05 µM: 99%
[12]; FaDu
  viability at 0.05 µM: 0.1%
[3]; HSK1, 5 × 10^-8 M
  viability at 0.05 µM: 99%
[4]; HSK1, 5 × 10^-8 M, 15 J cm^-2, source C (diode laser 800 nm)
  viability at 0.05 µM: 97%
[5]; CH2Cl2
  Absorption maximum λmax: 786 nm
[6]
  Quantum efficiency of singlet oxygen generation Φ(1O2): 0.09

## C(=CC=C1C=C(c2ccccc2)[Te]C(c2ccccc2)=C1)C=Cc1cc(-c2ccccc2)[te+]c(-c2ccccc2)c1 [Dye 16]
[13]
  Stability in solution: tended to be unstable in solution
[5]; MeOH
  Absorption maximum λmax: 1060 nm
[6]
  Quantum efficiency of singlet oxygen generation Φ(1O2): 0.005
